Results taken from paper PMC6915745, “TRIB3 supports breast cancer stemness by suppressing FOXO1 degradation and enhancing SOX2 transcription” (Nature Communications, 2019).
Read-outs that look alike come from different tables or passages of the source. Peptide text beside a SMILES is read from it. * marks the point of attachment. Cbz = O=C(OCc1ccccc1)*

Legend:
FOXO1 [1] = test: FOXO1 immunoblot in control or TRIB3-silenced MDA-MB-231 cells with BAF or MG132; assay type: cell-based; conditions: BAF 200 nM or MG132 10 μM, 8 h, in words
Protocol: (§1) Fig. 5 TRIB3 stabilizes the FOXO1 protein by suppressing its ubiquitination. a, b HMLE cells transfected with a TRIB3-expressing vector vs. a control vector (a) or MCF7 cells transfected with TRIB3-shRNA vs. CTRL-shRNA (b) were incubated with 20 μM cycloheximide (CHX) for the indicated times. c, d The effect of TRIB3 depletion on FOXO1 degradation in vitro. MCF7 cells (c) were incubated with CHX (20 μM), CHX plus bafilomycin (BAF, 200 nM), or MG132 (10 μM) for the indicated times. Control or TRIB3-silenced MCF7 cells (d, top) and MDA-MB-231 cells (d, bottom) were incubated with DMSO, 200 nM BAF, or 10 μM MG132 for 8 h. The indicated proteins were detected by immunoblotting. e, f FOXO1 activity in HMLE cells (e) transfected with a control vector or a TRIB3-expressing vector, or in MCF7 cells (f) transfected with CTRL-shRNA or TRIB3-shRNA and either a control vector or a FOXO1-expressing vector. g, h The effect of TRIB3 on FOXO1 ubiquitination. HMLE (g) or MCF7 cells (h) were transfected with the indicated plasmid. His-ubiquitin-conjugated proteins were pulled down from cell lysates. Total protein lysates and Ni-NTA-agarose eluates were immunoblotted for FLAG, His, and TRIB3. […]
(§2) Cycloheximide (CHX; Sigma Aldrich, R750107) was used as a protein synthesis inhibitor to assess the stability of the existing proteins. […] The protein concentrations were determined by BCA Protein Assay Kits (Pierce). […]

FOXO1 [2] = test: FOXO1 immunoblot in control or TRIB3-silenced MCF7 cells with BAF or MG132; assay type: cell-based, human; conditions: BAF 200 nM or MG132 10 μM, 8 h, in words
Protocol: as §1, §2

FOXO1 [3] = test: FOXO1 protein stability (cycloheximide chase), MCF7 cells; assay type: cell-based, human; conditions: for degradation of FOXO1: CHX 20 μM plus BAF 200 nM or MG132 10 μM, in words; for FOXO1 half-life: CHX, authors' reply to reviewers, control about 3 hr
Protocol: Fig. 5 TRIB3 stabilizes the FOXO1 protein by suppressing its ubiquitination. a, b HMLE cells transfected with a TRIB3-expressing vector vs. a control vector (a) or MCF7 cells transfected with TRIB3-shRNA vs. CTRL-shRNA (b) were incubated with 20 μM cycloheximide (CHX) for the indicated times. c, d The effect of TRIB3 depletion on FOXO1 degradation in vitro. MCF7 cells (c) were incubated with CHX (20 μM), CHX plus bafilomycin (BAF, 200 nM), or MG132 (10 μM) for the indicated times. Control or TRIB3-silenced MCF7 cells (d, top) and MDA-MB-231 cells (d, bottom) were incubated with DMSO, 200 nM BAF, or 10 μM MG132 for 8 h. The indicated proteins were detected by immunoblotting. e, f FOXO1 activity in HMLE cells (e) transfected with a control vector or a TRIB3-expressing vector, or in MCF7 cells (f) transfected with CTRL-shRNA or TRIB3-shRNA and either a control vector or a FOXO1-expressing vector. g, h The effect of TRIB3 on FOXO1 ubiquitination. HMLE (g) or MCF7 cells (h) were transfected with the indicated plasmid. His-ubiquitin-conjugated proteins were pulled down from cell lysates. Total protein lysates and Ni-NTA-agarose eluates were immunoblotted for FLAG, His, and TRIB3. Source data are provided as a Source Data file. […] I left them out because their labels are genetic constructs, not substances; their digits are also small
(§3) Cycloheximide (CHX; Sigma Aldrich, R750107) was used as a protein synthesis inhibitor to assess the stability of the existing proteins. To assess protein stability, cells were treated with 20 μM CHX and the proteasome inhibitor MG132 (Sigma Aldrich, R750107) at 10 μM or the autophagy inhibitor BAF (Sigma Aldrich, B1793) at 200 nM for the indicated times. Protein expression was assessed via immunoblot analysis with cell lysates (20–60 μg) prepared in RIPA lysis buffer containing protease inhibitors (Roche) using anti-SOX2 (3529), anti-NANOG (4903), anti-OCT4 (2750), anti-KLF4 (4038), anti-c-Myc (13987), anti-FOXO1 (2880), anti-p-FOXO1 (9461), anti-AKT (4685), anti-p-AKT (4060), anti-β-ACTIN (4970), anti-Ubiquitin (3936), or anti-LaminA/C (4777) antibodies from CST; anti-TRIB3 antibody (ab75846) from Abcam; and anti-Trib3 antibody (PA5-15480) from Thermo Fisher Scientific[59]. All antibodies were used at 1:1000 dilution, with the exception of anti-β-Actin antibodies, which were used at 1:2000 dilution. The protein concentrations were determined by BCA Protein Assay Kits (Pierce). Proteins were separated by SDS-polyacrylamide gel electrophoresis (PAGE) and transferred to polyvinylidene difluoride membrane.

MCF7 cells = test: TRIB3/AKT/FOXO1/SOX2 axis after IL-6, CoCl2 or high glucose, MCF7 cells (WB); assay type: cell-based, human
[4] = system: TRIB3-silenced MCF7 cells; test: Immunoblot of AKT1/FOXO1/SOX2, TRIB3-silenced MCF7 cells with AKT1 inhibitor MK2206; assay type: cell-based, human; conditions: Fig.6e, MCF7, TRIB3-shRNA, v.s CTRL-shRNA+DMSO
From the text: (§4) Fig. 6 TRIB3 abrogates the AKT-FOXO1 interaction. a Supervised clustering of MCF7 cells transfected with CTRL-shRNA or TRIB3-shRNA using the log2-transformed values for genes in the FOXO1 upstream pathway, including AMPK, ERK, PI3K, p38, and JNK clustered genes expressed in all samples. Each column represents a separate case. Z-scores from IPA depicting the subnetwork gene expression differences between CTRL-shRNA and TRIB3-shRNA cases. The Z-score heat map depicts the five FOXO1 upstream subnetworks. Each row represents the data for the subnetwork indicated in the right margin. b, c TRIB3 inhibited the activity of AKT1 in BCCs. The indicated stable expression cell extracts were prepared and the levels of the indicated proteins were detected by immunoblotting. d, e The effects of the AKT1 agonist or antagonist for TRIB3-FOXO1-SOX2 axis in BCCs. The indicated cells were treated with the AKT1 agonist SC79 or the antagonist MK2206 for 24 h. […] HMLE cell extracts were IP with an anti-AKT1 Ab and blotted with an anti-TRIB3 or anti-FOXO1 Ab in the presence of the indicated concentration of the TRIB3-GST protein. Data are shown as the mean ± SEM; P > 0.05 was considered not significant (NS); *P < 0.05, **P < 0.01, and ***P < 0.001 compared with the vector or CTRL-shRNA group. Source data are provided as a Source Data file.
as §3

[5] = system: HMLE cells overexpressing TRIB3; test: Immunoblot of AKT1/FOXO1/SOX2, HMLE cells with AKT1 agonist SC79; assay type: cell-based, human; conditions: for Relative fold change AKT1 / Relative fold change FOXO1 / Relative fold change SOX2 / Relative fold change TRIB3 / Relative fold change p-AKT(473S) / Relative fold change p-FOXO1(256S): Fig.6d, HMLE, TRIB3-shRNA, v.s CTRL-shRNA+DMSO
From the text: as §4, §3

TRIB3 = TRIB3 expression after cytokines or stressors, MCF7 cells (WB); assay type: cell-based, human; conditions: cytokines 8 hr, high glucose 24 hr
Protocol: as §3, with “membrane. […]” for “membrane.”
(f, g) The expression of
TRIB3 in MCF7 cells (top) or MDA-MB-231 cells (bottom) treated with various concentrations of IL6 for
8 hr (f) or 10 ng/ml IL-6 for different amounts of time (g) was detected by WB. (h) Silencing TRIB3
decreased the tumor sphere formation ability of MCF7 cells with or without IL-6 stimulation. […]
Data are shown as the mean ± SEM; P>0.05 was considered not significant (N.S.); *P<0.05, **P<0.01
and ***P<0.001, compared with the con group in panels d-f. Source data are provided as a Source Data

TRIB3-GST protein = biological target: T1, TRIB3-GST protein (UniProt Q96RU7 1-358); test: SPR
T1 chain: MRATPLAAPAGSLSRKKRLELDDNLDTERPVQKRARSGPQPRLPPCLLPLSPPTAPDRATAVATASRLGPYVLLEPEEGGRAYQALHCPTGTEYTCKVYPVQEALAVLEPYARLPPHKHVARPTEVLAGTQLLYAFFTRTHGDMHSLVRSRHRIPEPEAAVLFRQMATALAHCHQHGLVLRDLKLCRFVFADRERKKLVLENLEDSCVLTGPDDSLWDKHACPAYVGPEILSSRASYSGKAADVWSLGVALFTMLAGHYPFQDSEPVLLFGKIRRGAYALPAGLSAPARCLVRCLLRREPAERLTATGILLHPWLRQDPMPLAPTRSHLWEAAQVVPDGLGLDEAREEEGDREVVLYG

[6] = HMLE cells overexpressing TRIB3, 24 h

CO/C1=C\C(C)=C\[C@@H](C)[C@@H](O)[C@@H](C)C/C(C)=C/C=C/[C@H](OC)[C@@H]([C@@H](C)[C@@H](O)[C@H](C)[C@@]2(O)C[C@@H](O)[C@H](C)[C@@H](C(C)C)O2)OC1=O [BAF, bafilomycin]
inhibition of FOXO1 reduction caused by TRIB3 silencing (FOXO1 [1]): not by BAF
inhibition of FOXO1 reduction caused by TRIB3 silencing (FOXO1 [2]): not by BAF
degradation of FOXO1 (FOXO1 [3]): not by the autophagy inhibitor bafilomycin

[Cl-].[Cl-].[Co+2] [CoCl2, reference compound]
expressions of FOXO1 and SOX2 (MCF7 cells): enhance

O=c1cc(N2CCOCC2)oc2c(-c3ccccc3)cccc12 [LY294002]
FOXO1 half-life (FOXO1 [3]): 4.4 h

CC(C)C[C@@H](C=O)NC(=O)[C@H](CC(C)C)NC(=O)[C@H](CC(C)C)NC(=O)OCc1ccccc1 [MG132] (Cbz-Leu-Leu-Leu-aldehyde)
inhibition of FOXO1 reduction caused by TRIB3 silencing (FOXO1 [1]): inhibited by MG132
inhibition of FOXO1 reduction caused by TRIB3 silencing (FOXO1 [2]): inhibited by MG132
degradation of FOXO1 (FOXO1 [3]): inhibited by the proteasome inhibitor MG132
FOXO1 half-life (FOXO1 [3]): 6 h

NC1(c2ccc(-c3nc4ccn5c(=O)[nH]nc5c4cc3-c3ccccc3)cc2)CCC1 [MK-2206]
Relative fold change AKT1 ([4]; replicate 1): 0.657
Relative fold change FOXO1 ([4]; replicate 1): 1.341
Relative fold change SOX2 ([4]; replicate 1): 0.604
Relative fold change TRIB3 ([4]; replicate 1): 0.180
Relative fold change p-AKT(473S) ([4]; replicate 1): 0.243
Relative fold change p-FOXO1(256S) ([4]; replicate 1): 0.564
Relative fold change AKT1 ([4]; replicate 2): 0.717
Relative fold change FOXO1 ([4]; replicate 2): 1.441
Relative fold change SOX2 ([4]; replicate 2): 0.664
Relative fold change TRIB3 ([4]; replicate 2): 0.200
Relative fold change p-AKT(473S) ([4]; replicate 2): 0.263
Relative fold change p-FOXO1(256S) ([4]; replicate 2): 0.614
Relative fold change AKT1 ([4]; replicate 3): 0.597
Relative fold change FOXO1 ([4]; replicate 3): 1.241
Relative fold change SOX2 ([4]; replicate 3): 0.544
Relative fold change TRIB3 ([4]; replicate 3): 0.160
Relative fold change p-AKT(473S) ([4]; replicate 3): 0.223
Relative fold change p-FOXO1(256S) ([4]; replicate 3): 0.514

CCOC(=O)C1=C(N)Oc2ccc(Cl)cc2C1C(C#N)C(=O)OCC (stereo not drawn) [SC79]
Relative fold change AKT1 ([5]; replicate 1): 1.9500
Relative fold change FOXO1 ([5]; replicate 1): 0.4880
Relative fold change SOX2 ([5]; replicate 1): 5.8119
Relative fold change TRIB3 ([5]; replicate 1): 6.9492
Relative fold change p-AKT(473S) ([5]; replicate 1): 1.6733
Relative fold change p-FOXO1(256S) ([5]; replicate 1): 1.9882
Relative fold change AKT1 ([5]; replicate 2): 2.1500
Relative fold change FOXO1 ([5]; replicate 2): 0.5280
Relative fold change SOX2 ([5]; replicate 2): 6.4119
Relative fold change TRIB3 ([5]; replicate 2): 7.5492
Relative fold change p-AKT(473S) ([5]; replicate 2): 1.7733
Relative fold change p-FOXO1(256S) ([5]; replicate 2): 2.1782
Relative fold change AKT1 ([5]; replicate 3): 1.7500
Relative fold change FOXO1 ([5]; replicate 3): 0.4480
Relative fold change SOX2 ([5]; replicate 3): 5.2119
Relative fold change TRIB3 ([5]; replicate 3): 6.3492
Relative fold change p-AKT(473S) ([5]; replicate 3): 1.5733
Relative fold change p-FOXO1(256S) ([5]; replicate 3): 1.7982
FOXO1 and SOX2 expression [5, 6]: inhibited FOXO1 and SOX2 expression
activity of AKT1 S473 and FOXO1 S256 [5, 6]: rescued the activity of AKT1^S473 and FOXO1^S256

OC[C@H]1OC(O)[C@H](O)[C@@H](O)[C@@H]1O (stereo partly drawn) [high glucose, glucose]
TRIB3 expression (TRIB3): enhanced TRIB3 expression in MCF7 cells
expressions of FOXO1 and SOX2 (MCF7 cells; MCF7 cells, IL-6 12 hr, CoCl2 24 hr, high glucose 24 hr, WB): enhanced expressions of FOXO1 and SOX2
expressions of FOXO1 and SOX2 (MCF7 cells; MCF7 cells, IL-6 12 hr, CoCl2 24 hr, high glucose 24 hr, WB, listed as high-glucose): enhance
activity of FOXO1 S256 (MCF7 cells; MCF7 cells, IL-6 12 hr, high glucose 24 hr, WB): reduced the activity of FOXO1^S256

IL-1β: cytokine
TRIB3 expression (TRIB3): enhanced TRIB3 expression in MCF7 cells

transforming growth factor-β
TRIB3 expression (TRIB3): enhanced TRIB3 expression in MCF7 cells

tumor necrosis factor-α
TRIB3 expression (TRIB3): enhanced TRIB3 expression in MCF7 cells

EVAHTLTENRALQN [M10]
Kd (TRIB3-GST protein): 750 nM

VAHTLTENRVLQN [peptide Ae]
Kd (TRIB3-GST protein): 300 nM

EVAATLTENRVLQN [M3]
Kd (TRIB3-GST protein): 170 nM
